For test [1], the target named is Elongation factor Tu, mitochondrial (Homo sapiens, UniProt P49411).
Test [2] has as its target T1, Tyrosine-protein kinase Tec (Homo sapiens, UniProt P42680).
T1 sequence (P42680 whole entry): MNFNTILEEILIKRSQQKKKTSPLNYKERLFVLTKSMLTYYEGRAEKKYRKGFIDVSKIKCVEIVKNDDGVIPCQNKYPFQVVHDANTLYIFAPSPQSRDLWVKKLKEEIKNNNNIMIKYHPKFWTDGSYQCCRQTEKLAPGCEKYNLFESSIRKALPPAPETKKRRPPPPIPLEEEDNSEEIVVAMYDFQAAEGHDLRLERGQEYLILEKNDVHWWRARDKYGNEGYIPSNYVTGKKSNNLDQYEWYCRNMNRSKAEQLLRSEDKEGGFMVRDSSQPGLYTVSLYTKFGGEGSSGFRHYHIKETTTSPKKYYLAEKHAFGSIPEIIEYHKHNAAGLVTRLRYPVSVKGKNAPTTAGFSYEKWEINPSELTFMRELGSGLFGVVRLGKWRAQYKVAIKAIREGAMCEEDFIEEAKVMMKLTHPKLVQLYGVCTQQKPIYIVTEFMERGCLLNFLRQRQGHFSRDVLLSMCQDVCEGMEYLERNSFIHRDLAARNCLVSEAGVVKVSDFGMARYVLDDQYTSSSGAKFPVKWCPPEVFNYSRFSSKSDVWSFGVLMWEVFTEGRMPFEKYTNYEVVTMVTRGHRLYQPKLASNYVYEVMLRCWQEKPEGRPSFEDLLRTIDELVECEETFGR

For test [3], the target named is T2, Serine/threonine-protein kinase TAO3 (Homo sapiens, UniProt Q9H2K8).
T2 sequence (Q9H2K8 whole entry): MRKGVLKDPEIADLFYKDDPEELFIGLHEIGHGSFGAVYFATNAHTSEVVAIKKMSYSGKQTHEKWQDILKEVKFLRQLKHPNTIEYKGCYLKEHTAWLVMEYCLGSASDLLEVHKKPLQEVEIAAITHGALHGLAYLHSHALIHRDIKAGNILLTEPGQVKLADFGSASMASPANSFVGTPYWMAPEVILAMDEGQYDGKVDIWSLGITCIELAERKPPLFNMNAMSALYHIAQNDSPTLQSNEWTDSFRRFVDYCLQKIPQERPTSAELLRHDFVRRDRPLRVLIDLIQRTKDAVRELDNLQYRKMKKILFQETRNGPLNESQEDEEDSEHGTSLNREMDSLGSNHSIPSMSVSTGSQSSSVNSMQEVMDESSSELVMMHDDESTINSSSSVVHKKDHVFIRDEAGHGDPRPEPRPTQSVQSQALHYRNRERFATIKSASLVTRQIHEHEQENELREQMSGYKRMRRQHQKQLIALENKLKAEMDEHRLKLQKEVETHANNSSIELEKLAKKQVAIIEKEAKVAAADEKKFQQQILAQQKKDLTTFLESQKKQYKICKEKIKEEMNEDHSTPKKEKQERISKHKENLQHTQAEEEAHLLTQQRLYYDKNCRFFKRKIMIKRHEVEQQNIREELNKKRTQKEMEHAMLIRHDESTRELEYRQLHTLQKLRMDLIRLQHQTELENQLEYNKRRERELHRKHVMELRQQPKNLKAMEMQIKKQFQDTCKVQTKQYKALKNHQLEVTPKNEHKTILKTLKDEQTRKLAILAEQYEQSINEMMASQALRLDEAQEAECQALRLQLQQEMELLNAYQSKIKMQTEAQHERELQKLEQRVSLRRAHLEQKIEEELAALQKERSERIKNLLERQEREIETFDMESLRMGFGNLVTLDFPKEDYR

Test [4] concerns the target T3, Cytochrome c1, heme protein, mitochondrial (Homo sapiens, UniProt P08574).
T3 sequence (P08574 whole entry): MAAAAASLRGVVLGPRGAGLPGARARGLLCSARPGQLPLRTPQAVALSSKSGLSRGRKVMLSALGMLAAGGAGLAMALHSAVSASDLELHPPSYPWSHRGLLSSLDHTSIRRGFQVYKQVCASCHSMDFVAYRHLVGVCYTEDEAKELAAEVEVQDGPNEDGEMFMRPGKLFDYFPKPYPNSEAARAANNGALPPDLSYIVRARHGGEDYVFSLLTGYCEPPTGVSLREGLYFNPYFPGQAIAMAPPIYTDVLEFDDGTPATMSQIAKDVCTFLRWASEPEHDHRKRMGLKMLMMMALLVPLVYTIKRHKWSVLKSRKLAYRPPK

The target of another test is Focal adhesion kinase 1 (Homo sapiens, UniProt Q05397).
Chain of Focal adhesion kinase 1 (Q05397 whole entry): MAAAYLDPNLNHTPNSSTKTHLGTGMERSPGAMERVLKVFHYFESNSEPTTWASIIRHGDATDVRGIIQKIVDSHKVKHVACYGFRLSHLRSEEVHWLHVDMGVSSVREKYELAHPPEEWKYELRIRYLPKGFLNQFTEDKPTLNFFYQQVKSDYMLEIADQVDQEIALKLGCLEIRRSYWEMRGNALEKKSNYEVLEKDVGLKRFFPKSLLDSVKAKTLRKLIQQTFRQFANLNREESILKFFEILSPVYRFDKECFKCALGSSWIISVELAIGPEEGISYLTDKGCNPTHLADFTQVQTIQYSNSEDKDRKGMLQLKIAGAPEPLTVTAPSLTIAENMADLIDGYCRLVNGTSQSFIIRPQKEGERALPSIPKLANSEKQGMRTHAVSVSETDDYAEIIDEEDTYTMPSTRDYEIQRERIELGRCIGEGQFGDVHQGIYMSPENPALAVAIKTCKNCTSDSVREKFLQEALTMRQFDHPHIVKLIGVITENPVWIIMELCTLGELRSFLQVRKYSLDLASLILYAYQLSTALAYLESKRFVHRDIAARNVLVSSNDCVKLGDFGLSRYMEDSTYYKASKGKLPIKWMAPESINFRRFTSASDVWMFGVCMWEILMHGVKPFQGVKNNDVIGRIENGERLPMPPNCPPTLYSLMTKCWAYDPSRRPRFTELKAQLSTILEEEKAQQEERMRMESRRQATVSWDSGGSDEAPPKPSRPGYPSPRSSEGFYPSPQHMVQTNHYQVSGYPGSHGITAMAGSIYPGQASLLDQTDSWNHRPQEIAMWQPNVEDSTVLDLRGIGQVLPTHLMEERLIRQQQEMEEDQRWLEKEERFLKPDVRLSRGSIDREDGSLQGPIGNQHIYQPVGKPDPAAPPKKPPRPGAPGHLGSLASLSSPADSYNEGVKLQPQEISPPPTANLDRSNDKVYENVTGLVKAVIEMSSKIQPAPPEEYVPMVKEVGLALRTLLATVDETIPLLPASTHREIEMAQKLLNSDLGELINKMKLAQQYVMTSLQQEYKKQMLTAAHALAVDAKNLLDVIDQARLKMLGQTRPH
The target in test [5] is NADH dehydrogenase [ubiquinone] 1 alpha subcomplex subunit 13 (Homo sapiens, UniProt Q9P0J0).
Chain of NADH dehydrogenase [ubiquinone] 1 alpha subcomplex subunit 13 (Q9P0J0 whole entry, one chain of several): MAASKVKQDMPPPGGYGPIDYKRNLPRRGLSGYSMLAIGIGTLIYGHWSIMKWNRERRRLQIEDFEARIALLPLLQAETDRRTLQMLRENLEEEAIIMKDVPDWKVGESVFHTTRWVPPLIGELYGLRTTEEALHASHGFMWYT
In test [6] the target is Serine/threonine-protein kinase N2 (Homo sapiens, UniProt Q16513).
Chain of Serine/threonine-protein kinase N2 (Q16513 whole entry): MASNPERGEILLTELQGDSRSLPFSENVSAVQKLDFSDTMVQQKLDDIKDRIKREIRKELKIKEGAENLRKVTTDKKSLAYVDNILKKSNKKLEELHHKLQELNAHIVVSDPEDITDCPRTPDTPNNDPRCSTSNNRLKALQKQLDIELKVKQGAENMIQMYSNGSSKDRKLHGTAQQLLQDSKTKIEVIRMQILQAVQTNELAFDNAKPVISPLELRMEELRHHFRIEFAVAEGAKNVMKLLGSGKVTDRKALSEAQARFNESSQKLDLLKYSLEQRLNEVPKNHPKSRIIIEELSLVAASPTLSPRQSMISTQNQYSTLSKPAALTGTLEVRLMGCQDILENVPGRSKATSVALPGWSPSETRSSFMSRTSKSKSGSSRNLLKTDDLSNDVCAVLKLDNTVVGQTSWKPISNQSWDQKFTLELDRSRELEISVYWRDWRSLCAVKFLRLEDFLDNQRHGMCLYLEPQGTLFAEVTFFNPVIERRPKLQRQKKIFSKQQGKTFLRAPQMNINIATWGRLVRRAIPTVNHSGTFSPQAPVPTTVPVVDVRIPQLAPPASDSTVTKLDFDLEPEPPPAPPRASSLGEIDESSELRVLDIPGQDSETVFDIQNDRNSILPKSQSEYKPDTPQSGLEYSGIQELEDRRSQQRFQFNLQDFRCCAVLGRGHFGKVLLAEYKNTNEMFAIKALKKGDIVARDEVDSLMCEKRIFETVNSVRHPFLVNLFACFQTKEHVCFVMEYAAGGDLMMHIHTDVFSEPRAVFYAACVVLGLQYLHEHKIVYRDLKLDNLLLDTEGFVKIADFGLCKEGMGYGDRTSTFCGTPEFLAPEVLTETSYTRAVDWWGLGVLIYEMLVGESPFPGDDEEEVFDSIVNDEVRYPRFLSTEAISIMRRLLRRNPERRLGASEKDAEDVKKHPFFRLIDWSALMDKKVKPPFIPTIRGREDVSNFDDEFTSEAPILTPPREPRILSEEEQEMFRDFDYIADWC
The target of a further test is Myosin-14 (Homo sapiens, UniProt Q7Z406).
Chain of Myosin-14 (Q7Z406 whole entry): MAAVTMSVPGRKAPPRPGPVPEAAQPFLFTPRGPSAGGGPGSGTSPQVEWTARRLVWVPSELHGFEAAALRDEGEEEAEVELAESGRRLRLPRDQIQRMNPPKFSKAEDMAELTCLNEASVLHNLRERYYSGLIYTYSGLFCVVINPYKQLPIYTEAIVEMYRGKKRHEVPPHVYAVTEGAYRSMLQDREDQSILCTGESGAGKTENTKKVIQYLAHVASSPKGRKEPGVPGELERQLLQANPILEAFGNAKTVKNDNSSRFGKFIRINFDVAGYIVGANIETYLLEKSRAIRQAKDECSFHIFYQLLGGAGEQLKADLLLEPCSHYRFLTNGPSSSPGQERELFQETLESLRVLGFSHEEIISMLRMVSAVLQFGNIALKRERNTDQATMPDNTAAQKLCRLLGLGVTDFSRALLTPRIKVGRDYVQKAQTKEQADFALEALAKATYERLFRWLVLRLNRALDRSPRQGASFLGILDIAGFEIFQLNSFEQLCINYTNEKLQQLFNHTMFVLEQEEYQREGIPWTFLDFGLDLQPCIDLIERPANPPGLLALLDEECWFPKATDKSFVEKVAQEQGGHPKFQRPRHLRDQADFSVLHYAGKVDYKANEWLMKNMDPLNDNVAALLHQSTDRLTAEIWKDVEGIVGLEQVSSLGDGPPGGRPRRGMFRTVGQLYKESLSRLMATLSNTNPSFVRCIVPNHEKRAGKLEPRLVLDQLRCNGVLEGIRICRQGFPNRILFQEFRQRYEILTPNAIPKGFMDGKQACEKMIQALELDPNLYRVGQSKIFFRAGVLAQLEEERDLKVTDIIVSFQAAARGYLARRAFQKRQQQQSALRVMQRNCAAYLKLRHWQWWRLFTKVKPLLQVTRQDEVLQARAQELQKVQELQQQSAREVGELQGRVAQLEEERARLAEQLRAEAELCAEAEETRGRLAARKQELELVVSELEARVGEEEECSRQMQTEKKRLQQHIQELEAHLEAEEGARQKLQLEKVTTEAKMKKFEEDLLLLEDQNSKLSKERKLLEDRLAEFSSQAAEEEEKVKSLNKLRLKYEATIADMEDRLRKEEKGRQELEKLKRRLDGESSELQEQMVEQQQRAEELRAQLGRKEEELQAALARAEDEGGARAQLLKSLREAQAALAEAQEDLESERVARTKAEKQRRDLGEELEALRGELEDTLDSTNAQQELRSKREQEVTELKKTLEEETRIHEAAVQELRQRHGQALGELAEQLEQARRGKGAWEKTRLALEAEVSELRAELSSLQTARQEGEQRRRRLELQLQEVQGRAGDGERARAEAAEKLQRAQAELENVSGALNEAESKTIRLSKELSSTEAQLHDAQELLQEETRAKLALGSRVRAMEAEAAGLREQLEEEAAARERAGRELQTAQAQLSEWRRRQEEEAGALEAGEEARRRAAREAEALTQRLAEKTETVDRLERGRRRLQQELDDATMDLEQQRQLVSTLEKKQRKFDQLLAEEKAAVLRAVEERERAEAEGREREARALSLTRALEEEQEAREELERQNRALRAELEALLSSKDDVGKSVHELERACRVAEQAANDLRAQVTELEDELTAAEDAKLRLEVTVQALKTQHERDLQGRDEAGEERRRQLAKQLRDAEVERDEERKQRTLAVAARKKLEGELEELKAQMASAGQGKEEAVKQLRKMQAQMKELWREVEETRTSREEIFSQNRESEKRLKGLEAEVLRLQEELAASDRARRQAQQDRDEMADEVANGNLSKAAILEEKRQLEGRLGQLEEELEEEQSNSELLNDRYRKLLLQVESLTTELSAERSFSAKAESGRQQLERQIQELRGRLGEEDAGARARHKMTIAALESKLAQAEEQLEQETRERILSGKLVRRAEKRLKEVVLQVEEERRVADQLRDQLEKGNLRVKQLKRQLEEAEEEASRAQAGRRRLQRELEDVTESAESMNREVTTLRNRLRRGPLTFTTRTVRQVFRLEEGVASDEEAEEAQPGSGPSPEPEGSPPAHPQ

Activity calls are given as the source filed them.

Experimental findings from ChEMBL document CHEMBL3991601, “The target landscape of clinical kinase drugs” (Science, 2017) are described below.
Note: in the data inactive means no Kd found up to 30 µM.

The Kd is the concentration at which binding is half-saturated. As for `CNC(=O)c1nn(C)c2c1C(C)(C)Cc1cnc(Nc3ccc(N4CCN(C)CC4)cc3)nc1-2` [MILCICLIB], the Kd is > 30 µM (inactive) in test [1]; > 30 µM (inactive) in test [2]; 10.6 µM (active) in test [3]; > 30 µM (inactive) in test [4]; > 30 µM (inactive) at Focal adhesion kinase 1; > 30 µM (inactive) in test [5]. Also, the Kd (in test [6]; at Myosin-14) was > 30 µM (inactive) each time.
For the molecule `NC1(c2ccc(-c3nc4ccn5c(=O)[nH]nc5c4cc3-c3ccccc3)cc2)CCC1` [MK-2206], the Kd (in test [1]; in test [2]; in test [3]; in test [4]; on Focal adhesion kinase 1; in test [5]) was > 30 µM (inactive) throughout. The Kd (in test [6]; at Myosin-14) was > 30 µM (inactive) throughout.
As to `CN(C[C@@H]1COCCO1)S(=O)(=O)Nc1ccc2ccc3ncc(-c4cnn(C)c4)cc3c(=O)c2c1` [MK-2461], the Kd (in test [1]; in test [2]; in test [3]; in test [4]; on Focal adhesion kinase 1; in test [5]) was > 30 µM (inactive) throughout. Moreover, the Kd (in test [6]; at Myosin-14) was > 30 µM (inactive) in each case.
As to `Cn1cc(-c2cnc3ccc4ccc(CS(=O)(=O)NCc5ccccn5)cc4c(=O)c3c2)cn1` [MK-8033], the Kd (in test [1]; in test [2]; in test [3]; in test [4]; on Focal adhesion kinase 1; in test [5]) was > 30 µM (inactive) each time. Besides, the Kd (in test [6]; on Myosin-14) was > 30 µM (inactive) throughout.
As to `FC(F)(F)c1ccc(/C=C/c2nc(COc3ccc(CCCCn4ccnn4)cc3)co2)cc1` [MUBRITINIB], the Kd (in test [1]; in test [2]; in test [3]; in test [4]; at Focal adhesion kinase 1; in test [5]) was > 30 µM (inactive) throughout. Further, the Kd (in test [6]; on Myosin-14) was > 30 µM (inactive) each time.
Regarding `COc1ncc(-c2ccc3nccc(-c4ccnnc4)c3c2)cc1NS(=O)(=O)c1ccc(F)cc1F` [OMIPALISIB], the Kd (in test [1]; in test [2]; in test [3]; in test [4]; at Focal adhesion kinase 1; in test [5]) was > 30 µM (inactive) each time. Moreover, the Kd (in test [6]; at Myosin-14) was > 30 µM (inactive) in each case.
For `CCCCCCCCCCCCCCCCCCOP(=O)([O-])OC1CC[N+](C)(C)CC1` [PERIFOSINE], the Kd (in test [1]; in test [2]; in test [3]; in test [4]; on Focal adhesion kinase 1; in test [5]) was > 30 µM (inactive) throughout. Also, the Kd (in test [6]; at Myosin-14) was > 30 µM (inactive) in each case.
For the molecule `Cc1nc(Nc2n[nH]c3c2CN(C(=O)N[C@H](CN(C)C)c2ccccc2)C3(C)C)c2sccc2n1` [PF-03758309], the Kd in test [1] is > 30 µM (inactive); in test [2], 1.23 µM (active); in test [3] it was > 30 µM (inactive); in test [4] it was > 30 µM (inactive); at Focal adhesion kinase 1 it was > 30 µM (inactive); in test [5], > 30 µM (inactive). For the same molecule, the Kd (in test [6]; on Myosin-14) was > 30 µM (inactive) throughout.
Take `Cc1cnc(NC(=O)Nc2cc(Br)c(C)cc2OC[C@@H]2CNCCO2)cn1` [RABUSERTIB]: the Kd (in test [1]; in test [2]; in test [3]; in test [4]; at Focal adhesion kinase 1; in test [5]) was > 30 µM (inactive) each time. Further, the Kd (in test [6]; on Myosin-14) was > 30 µM (inactive) in each case.
In the case of `CNC(=O)c1cc(Oc2ccc(NC(=O)Nc3cc(C(C)(C)C)nn3-c3ccc4ncccc4c3)c(F)c2)ccn1` [REBASTINIB], the Kd in test [1] was > 30 µM (inactive); in test [2] it was > 30 µM (inactive); in test [3], 14.2 µM (active); in test [4] it was > 30 µM (inactive); on Focal adhesion kinase 1, > 30 µM (inactive); in test [5], > 30 µM (inactive). For the same molecule, the Kd (in test [6]; on Myosin-14) was > 30 µM (inactive) each time.
Regarding `CO[C@H]1C[C@@H]2CC[C@@H](C)[C@@](O)(O2)C(=O)C(=O)N2CCCC[C@H]2C(=O)O[C@H]([C@H](C)C[C@@H]2CC[C@@H](OP(C)(C)=O)[C@H](OC)C2)CC(=O)[C@H](C)/C=C(\C)[C@@H](O)[C@@H](OC)C(=O)[C@H](C)C[C@H](C)/C=C/C=C/C=C/1C` [RIDAFOROLIMUS], the Kd (in test [1]; in test [2]; in test [3]; in test [4]; on Focal adhesion kinase 1; in test [5]) was > 30 µM (inactive) in each case. Moreover, the Kd (in test [6]; on Myosin-14) was > 30 µM (inactive) each time.
In the case of `N#CC1(c2ccc(NC(=O)c3cccnc3NCc3ccncc3)cc2)CCCC1` [RIVOCERANIB], the Kd (in test [1]; in test [2]; in test [3]; in test [4]; on Focal adhesion kinase 1; in test [5]) was > 30 µM (inactive) throughout. The Kd (in test [6]; on Myosin-14) was > 30 µM (inactive) in each case.
On to `O=c1[nH]ccc2cc(OC3CCNCC3)ccc12` [SAR-407899 FREE BASE], for which the Kd (in test [1]; in test [2]; in test [3]; in test [4]; at Focal adhesion kinase 1; in test [5]) was > 30 µM (inactive) in each case. Moreover, the Kd in test [6] is 0.008 µM (active); on Myosin-14 it was > 30 µM (inactive).
As for `CN1CCN(CCOc2cc(OC3CCOCC3)c3c(Nc4c(Cl)ccc5c4OCO5)ncnc3c2)CC1` [SARACATINIB], the Kd (in test [1]; in test [2]; in test [3]; in test [4]; at Focal adhesion kinase 1; in test [5]) was > 30 µM (inactive) each time. For the same molecule, the Kd (in test [6]; on Myosin-14) was > 30 µM (inactive) throughout.
